Measurements from US20160257651A1, “NOVEL COMPOUND WITH ANTIBACTERIAL ACTIVITY” (priority 2013, published 2016).
≈ marks a conversion by molar mass, not a printed value. Like-named read-outs stand apart in the source and are kept apart here.

What was measured:
S. pneumoniae BCLSP37 = experiment: MIC against pneumococcus, CAMHB with 5 mass % LHB; assay type: cell-based, Streptococcus pneumoniae; conditions: Streptococcus pneumoniae, BCLSP37, S. pneumoniae BCLSP37, PSSP, quinolone-resistant; ParC 79Phe, GyrA 85Lys; read-out: MIC
Protocol: (§1) The S. pneumoniae strains used for this test belong to any one of the categories of penicillin-susceptible pneumococcus (penicillin-susceptible Streptococcus pneumoniae, PSSP), penicillin-intermediate pneumococcus (penicillin-intermediate Streptococcus pneumoniae, PISP), and penicillin-resistant pneumococcus (penicillin-resistant Streptococcus pneumoniae, PRSP).
(§2) The lysed horse blood was prepared by adding sterilized water to horse sterile defibered blood (produced by Nippon Bio-Supp. Center) at a ratio of 1:1, subjecting the mixture to freezing and thawing 5 times, then centrifuging the mixture twice at 10,000 rpm for 20 minutes, and filtering the supernatant through a filter.
(§3) The S. pneumoniae strains mentioned in Table 11 were each cultured overnight at 37° C. on a blood agar medium as stationary culture. The blood agar medium was prepared by adding 5 mass % ovine sterile defibered blood (produced by Nippon Bio-Supp. Center) to a heart infusion agar medium (produced by EIKEN CHEMICAL). Each S. pneumoniae strain cultured overnight at 37° C. as stationary culture was further subcultured overnight at 37° C. on fresh blood agar medium as stationary culture. After completion of the culture, cells of each pneumococcus strain were collected with a swab, and suspended in physiological saline, and the suspension was adjusted with physiological saline to show absorbance of 0.08 to 0.13 at 625 nm as measured with an absorbance meter (produced by Amersham), and further diluted 200 times with CAMHB containing 5 mass % LHB.
(§4) In Table 11, the amino acid substitution mutations in QRDR of the strains are underlined.

S. pneumoniae KBSP11 = experiment: MIC against pneumococcus, CAMHB with 5 mass % LHB; assay type: cell-based, Streptococcus pneumoniae; conditions: Streptococcus pneumoniae
Protocol: as §1, §2, §3, §4

E. faecalis 36-15722 = experiment: MIC against Enterococcus bacteria; assay type: cell-based, Enterococcus faecalis; conditions: Enterococcus faecalis, 3615722
Protocol: Antibacterial activities of the compound J-131CP against Enterococcus bacteria (Enterococcus faecium and Enterococcus faecalis) were examined by the following methods.
(§5) The compound J-131CP and quinolones were prepared in the same manner as that of Test Example 1-1.
Cell suspensions were prepared in the same manner as that of Test Example 1-1 described in the section of measurement of MIC in Test Example 1-1, except that the Enterococcus bacterium strains mentioned in Table 8 were used instead of Staphylococcus aureus, and MICs of the compound J-131CP and quinolones as control were determined for the strains in the same manner as that of Test Example 1-1 described in the section of measurement of MIC in Test Example 1-1. In Table 8, the amino acid substitution mutations in QRDR of the strains are underlined.

S. aureus Mu50 NR1-1 = experiment: microbe, parasite or virus in culture; assay type: cell-based; conditions: Staphylococcus aureus, MU50NR11
Protocol: (§6) Then, the cell suspension was diluted 500 times with CAMHB mentioned above.

S. aureus Mu50 = experiment: microbe, parasite or virus in culture; assay type: cell-based, Staphylococcus aureus; conditions: for MIC ratio (Mu50 MIC/FDA209P MIC): MIC for S. aureus Mu50 / MIC for S. aureus FDA209P; for MIC: S. aureus Mu50, quinolone-resistant MRSA, ParC S80F, GyrA S84L
Protocol: as §6

[1] = test system: S. aureus FDA209P (ATCC 6538P); experiment: microbe, parasite or virus in culture; assay type: cell-based, Staphylococcus aureus; conditions: Staphylococcus aureus, ATCC 6538P / FDA209P / MSSA, quinolone-susceptible MSSA, ParC 80S, GyrA 84S, read-out: MIC
Protocol: as §6

[2] = test system: Staphylococcus aureus NCTC8325 (MSSA); experiment: MIC, S. aureus categories (Test Example 3); assay type: cell-based; conditions: Staphylococcus aureus; strain NCTC8325, MSSA; read-out: MIC
Protocol: (§7) The antibacterial activities of the compound J-131CP against Staphylococcus aureus strains belonging to the five categories of Staphylococcus aureus, i.e., MSSA, MRSA, community-acquired-infection type MRSA (CA-MRSA), VISA, and VRSA, were investigated.
as §5
(§8) Cell suspensions were prepared in the same manner as that of Test Example 1-1 described in the section of measurement of MIC in Test Example 1-1, except that the strains mentioned in Table 6 were used as Staphylococcus aureus, and MICs of the compound J-131CP and quinolones as the control were determined for the strains in the same manner as that of Test Example 1-1. In Table 6, the amino acid substitution mutations in QRDR of the strains are underlined.

[3] = test system: Staphylococcus aureus ATCC29213 (MSSA); experiment: MIC, S. aureus categories (Test Example 3); assay type: cell-based; conditions: strain ATCC29213, MSSA
Protocol: as §7, §5, §8

[4] = test system: Staphylococcus aureus BR2 (VISA); experiment: MIC, S. aureus categories (Test Example 3); assay type: cell-based
Protocol: as §7, §5, §8

[5] = test system: Staphylococcus aureus KSA36 (MRSA); experiment: MIC, S. aureus categories (Test Example 3); assay type: cell-based
Protocol: as §7, §5, §8

[6] = test system: Staphylococcus aureus USA300FPR (CA-MRSA); experiment: MIC, S. aureus categories (Test Example 3); assay type: cell-based
Protocol: as §7, §5, §8

[7] = test system: Staphylococcus aureus MI (VISA); experiment: MIC, S. aureus categories (Test Example 3); assay type: cell-based
Protocol: as §7, §5, §8

[8] = test system: Staphylococcus aureus VRS5 (VRSA); experiment: MIC, S. aureus categories (Test Example 3); assay type: cell-based
Protocol: as §7, §5, §8

[9] = test system: Staphylococcus aureus MW2 (CA-MRSA); experiment: MIC, S. aureus categories (Test Example 3); assay type: cell-based; conditions: Staphylococcus aureus, strain MW2, CA-MRSA
Protocol: as §7, §5, §8

[10] = test system: Staphylococcus aureus VRS1 (VRSA); experiment: MIC, S. aureus categories (Test Example 3); assay type: cell-based
Protocol: as §7, §5, §8

[11] = test system: Staphylococcus aureus VRS3a (VRSA); experiment: MIC, S. aureus categories (Test Example 3); assay type: cell-based
Protocol: as §7, §5, §8

[12] = E. faecalis 36-15722, quinolone-resistant, ParC 80Ile, GyrA 84Ile, read-out: MIC
[13] = S. pneumoniae KBSP11, PRSP, quinolone-susceptible, read-out: MIC

In the case of `NC1CCN(c2nc3c(cc2F)c(=O)c(C(=O)O)cn3-c2ccc(F)cc2F)C1` (stereo not drawn) [TSX, tosufloxacin], the MIC (S. pneumoniae BCLSP37) was 16 µg/mL (≈ 39.6 µM), the MIC (S. pneumoniae KBSP11; PRSP) was 0.125 µg/mL (≈ 0.309 µM) and the MIC (E. faecalis 36-15722; [12]) was > 128 µg/mL. The MIC (S. aureus Mu50 NR1-1) was 0.5 µg/mL (≈ 1.24 µM), the “MIC ratio (Mu50 MIC/FDA209P MIC)” value (S. aureus Mu50) was “≧2048” and the MIC [1] was ≤ 0.06 µg/mL. The MIC [2] was ≤ 0.06 µg/mL, the MIC ([3]; read-out: MIC) was ≤ 0.06 µg/mL and the MIC [4] was 32 µg/mL (≈ 79.1 µM). The MIC [5] was > 128 µg/mL, the MIC [6] was 16 µg/mL (≈ 39.6 µM) and the MIC [7] was 16 µg/mL (≈ 39.6 µM). The MIC [8] was > 128 µg/mL, the MIC ([9]; read-out: MIC) was ≤ 0.06 µg/mL and the MIC [10] was 4 µg/mL (≈ 9.89 µM). For the same compound, the MIC [11] was > 128 µg/mL.

In the case of `CCn1cc(C(=O)O)c(=O)c2cc(F)c(N3CCNCC3)cc21` [NOR, norfloxacin], the MIC (S. pneumoniae BCLSP37) was 64 µg/mL (≈ 200 µM), the MIC (S. pneumoniae KBSP11; [13]) was 4 µg/mL (≈ 12.5 µM) and the MIC (E. faecalis 36-15722; [12]) was 128 µg/mL (≈ 401 µM). For the same compound, the MIC (S. aureus Mu50 NR1-1) was 16 µg/mL (≈ 50.1 µM), the “MIC ratio (Mu50 MIC/FDA209P MIC)” value (S. aureus Mu50) was 512 and the MIC [1] was 0.25 µg/mL (≈ 0.783 µM). The MIC [2] was 1 µg/mL (≈ 3.13 µM), the MIC ([3]; read-out: MIC) was 1 µg/mL (≈ 3.13 µM) and the MIC [4] was 64 µg/mL (≈ 200 µM). The MIC [5] was > 128 µg/mL, the MIC [6] was 32 µg/mL (≈ 100 µM) and the MIC [7] was 128 µg/mL (≈ 401 µM). The MIC [8] was > 128 µg/mL, the MIC ([9]; read-out: MIC) was 0.5 µg/mL (≈ 1.57 µM) and the MIC [10] was > 128 µg/mL. The MIC [11] was 128 µg/mL (≈ 401 µM).

In the case of `O=C(O)c1cn(C2CC2)c2cc(N3CCNCC3)c(F)cc2c1=O` [CIP, ciprofloxacin], the MIC (S. pneumoniae BCLSP37) was > 32 µg/mL, the MIC (S. pneumoniae KBSP11; [13]) was 0.5 µg/mL (≈ 1.51 µM) and the MIC (E. faecalis 36-15722) was 64 µg/mL (≈ 193 µM). The MIC [2] was 0.25 µg/mL (≈ 0.754 µM), the MIC ([3]; read-out: MIC) was 0.25 µg/mL (≈ 0.754 µM) and the MIC [4] was 4 µg/mL (≈ 12.1 µM). The MIC [5] was 128 µg/mL (≈ 386 µM), the MIC [6] was 16 µg/mL (≈ 48.3 µM) and the MIC [7] was 16 µg/mL (≈ 48.3 µM). The MIC [8] was > 128 µg/mL, the MIC ([9]; read-out: MIC) was 0.25 µg/mL (≈ 0.754 µM) and the MIC [10] was 128 µg/mL (≈ 386 µM). It also gave an MIC [11] of 64 µg/mL (≈ 193 µM).

In the case of `C[C@H]1COc2c(N3CCN(C)CC3)c(F)cc3c(=O)c(C(=O)O)cn1c23` [LVX, levofloxacin], the MIC (S. pneumoniae BCLSP37) was 32 µg/mL (≈ 88.6 µM), the MIC (S. pneumoniae KBSP11; [13]) was 1 µg/mL (≈ 2.77 µM) and the MIC (E. faecalis 36-15722; [12]) was 36 µg/mL (≈ 99.6 µM). The MIC (S. aureus Mu50 NR1-1) was 1 µg/mL (≈ 2.77 µM), the “MIC ratio (Mu50 MIC/FDA209P MIC)” value (S. aureus Mu50) was “≧128” and the MIC (S. aureus Mu50) was 8 mg/L (≈ 22.1 µM). The MIC (S. aureus Mu50; Staphylococcus aureus, MRSA) was 8 to 128 mg/L (≈ 22.1 to 354 µM), the MIC [1] was ≤ 0.06 µg/mL and the MIC [2] was 0.25 µg/mL (≈ 0.692 µM). For the same compound, the MIC [3] was 0.125 µg/mL (≈ 0.346 µM), the MIC [4] was 8 µg/mL (≈ 22.1 µM) and the MIC [5] was > 128 µg/mL. The MIC [6] was 4 µg/mL (≈ 11.1 µM), the MIC [7] was 32 µg/mL (≈ 88.6 µM) and the MIC [8] was > 128 µg/mL. It also gave an MIC ([9]; MRSA) of 0.125 µg/mL (≈ 0.346 µM), an MIC [10] of 16 µg/mL (≈ 44.3 µM) and an MIC [11] of 16 µg/mL (≈ 44.3 µM).
